From US20140050720A1, “ULTRALONG COMPLEMENTARITY DETERMINING REGIONS AND USES THEREOF” (THE SCRIPPS RESEARCH INSTITUTE, priority 2012, published 2014)

What was measured:
[1] = Pharmacokinetics of BLV1H12-bGCSF fusion antibodies in mice; type: in vivo; settings: BALB/c mice, 70 μg injected
Method: For PK study in mice, 70 μg of the immunoglobulin constructs described herein were injected into 3 BALB/c mice per group. Blood samples were drawn from time 0 to 14 days with extended intervals and analyzed by ELISA using anti-human IgG Fc antibody with horseradish peroxidase (HRP) labeled (KPL) and anti-6×His antibody with HRP labeled (Clontech). Data were normalized by taking maximal concentration at the first time point (30 min).

[2] = system: mice neutrophils; assay: Neutrophils counts in mice; type: in vivo; settings: mice blood, 10th day post-injection, neutrophils among white blood cells
Method: On the 10th day after injection of BLV1H12-bGCSF fusion antibodies into mice for PK study, blood samples were drawn from the mice and stained using the Diff Quick Staining Kit (Thermo Fisher Scientific, IL). Neutrophils and white blood cells were counted under microscope and the percentages of neutrophils were analyzed. FIGS. 12A-12B and Table 12 show proliferative activities of BLV1H12-bGCSF fusion antibodies on mice neutrophils that are blood stained and counted at the 10th day post-injection.

[3] = system: Mouse NFS-60 cells; assay: Proliferation assay on mouse NFS-60 cells (AlamarBlue); type: cell-based; settings: 72 hours
Method: Mouse NFS-60 cells were obtained from American Type Culture Collection (ATCC), VA, and cultured in RPMI-1640 medium supplemented with 10% fetal bovine serum (FBS), 0.05 mM 2-mercapoethanol and 62 ng/ml human macrophage colony stimulating factor (M-CSF). For proliferation assay, mouse NFS-60 cells were washed three times with RPMI-1640 medium and resuspended in RPMI-1640 medium with 10% FBS and 0.05 mM 2-mercapoethanol at a density of 1.5×10^5 cells/ml. In 96-well plates, 100 μl of cell suspension was added into each well, followed by the addition of varied concentrations of bGCSF, BLV1H12 antibody, and the immunoglobulin constructs described herein, Equal volume of PBS buffer was added into the control wells. The plates were incubated at 37° C. in a 5% CO2 incubator for 72 hours. Cells were then treated with AlamarBlue (Invitrogen) ( 1/10 volume of cell suspension) for 4 hours at 37° C. Fluorescence at 595 nm for each well was read to indicate the cell viability.

[4] = system: Human mPB CD34+ cells; assay: Proliferative activity on human granulocyte progenitors (flow cytometry); type: cell-based; settings: 7 days
Method: Human mPB CD34^+ cells were purchased from AllCells. Cells were resuspended in HSC expansion medium (StemSpan SFEM, StemCell Technologies) supplemented with 1× antibiotics and the following recombinant human cytokines thrombopoietin, IL6, Flt3 ligand, and stem cell factor (100 ng/mL, R & D Systems), then plated in 96-well plates (1000 cells per well), with varied concentrations of BLV1H12-bGCSF fusion antibodies. Cells were cultured for 7 days at 37° C. in a 5% CO2 incubator, then analyzed by flow cytometry to measure cell number and expression of CD45ra and CD41. Cells were stained in staining medium (HBSS supplemented with 2% FBS and 2 mM EDTA) at 4° C. for 1 h with PECy7 anti-CD45ra and eFluor 450 anti-CD41 (eBiosciences), then washed with staining medium and analyzed. Multicolor analysis for cell phenotyping was performed on a LSR II flow cytometer (Becton Dickinson). FIGS. 10A-10E and Tables 9-10 show the human granulocyte progenitor cell proliferative activities of the Ab-GCSF fusion antibodies.

Ab-bGCSF L0: bovine G-CSF replacing the knob domain of BLV1H12 CDR3H, no linker (n=0); DNA SEQ ID NO: 4
Percentage (normalized to maximal concentration at the first time point, 30 min) ([1]; day 0.021): 100.00% | Percentage (normalized to maximal concentration at the first time point, 30 min) ([1]; day 0.042): 91.12% | Percentage (normalized to maximal concentration at the first time point, 30 min) ([1]; day 0.083): 91.24% | Percentage (normalized to maximal concentration at the first time point, 30 min) ([1]; day 0.125): 91.56% | Percentage (normalized to maximal concentration at the first time point, 30 min) ([1]; day 0.250): 61.22% | Percentage (normalized to maximal concentration at the first time point, 30 min) ([1]; day 1.000): 44.22% | Percentage (normalized to maximal concentration at the first time point, 30 min) ([1]; day 2.000): 36.36% | Percentage (normalized to maximal concentration at the first time point, 30 min) ([1]; day 3.000): 27.38% | Percentage (normalized to maximal concentration at the first time point, 30 min) ([1]; day 8.000): 11.53% | Percentage (normalized to maximal concentration at the first time point, 30 min) ([1]; day 10.000): 12.44% | Percentage (normalized to maximal concentration at the first time point, 30 min) ([1]; day 14.000): 14.35% | Percentage of Neutrophil [2]: 25.05 | F.I. (AlamarBlue fluorescence at 595 nm, cell viability) ([3]; 0.09876 ng/mL): 1328 | F.I. (AlamarBlue fluorescence at 595 nm, cell viability) ([3]; 0.29627 ng/mL): 1436 | F.I. (AlamarBlue fluorescence at 595 nm, cell viability) ([3]; 0.88881 ng/mL): 1734.765 | F.I. (AlamarBlue fluorescence at 595 nm, cell viability) ([3]; 2.66642 ng/mL): 2189 | F.I. (AlamarBlue fluorescence at 595 nm, cell viability) ([3]; 7.99927 ng/mL): 2680 | F.I. (AlamarBlue fluorescence at 595 nm, cell viability) ([3]; 23.9978 ng/mL): 2899 | F.I. (AlamarBlue fluorescence at 595 nm, cell viability) ([3]; 71.9934 ng/mL): 2921 | F.I. (AlamarBlue fluorescence at 595 nm, cell viability) ([3]; 215.9802 ng/mL): 3416 | Number of CD45RA− CD41− ([4]; 0.14225 ng/mL): 2601 | Number of CD45RA− CD41− ([4]; 0.42676 ng/mL): 2253 | Number of CD45RA− CD41− ([4]; 3.84088 ng/mL): 4399 | Number of CD45RA− CD41− ([4]; 11.52263 ng/mL): 7262 | Number of CD45RA− CD41− ([4]; 34.5679 ng/mL): 9902 | Number of CD45RA− CD41− ([4]; 103.7037 ng/mL): 11500 | Number of CD45RA− CD41− ([4]; 311.11111 ng/mL): 11500 | Number of CD45RA− CD41− ([4]; 933.33333 ng/mL): 11900 | Number of CD45RA− CD41− ([4]; 2800 ng/mL): 12100

Ab-bGCSF L1: bovine G-CSF replacing the knob domain of BLV1H12 CDR3H with GGGGS linkers on both ends; DNA SEQ ID NO: 5
Percentage (normalized to maximal concentration at the first time point, 30 min) ([1]; day 0.021): 100.00% | Percentage (normalized to maximal concentration at the first time point, 30 min) ([1]; day 0.042): 102.12% | Percentage (normalized to maximal concentration at the first time point, 30 min) ([1]; day 0.083): 104.03% | Percentage (normalized to maximal concentration at the first time point, 30 min) ([1]; day 0.125): 101.71% | Percentage (normalized to maximal concentration at the first time point, 30 min) ([1]; day 0.250): 93.90% | Percentage (normalized to maximal concentration at the first time point, 30 min) ([1]; day 1.000): 59.26% | Percentage (normalized to maximal concentration at the first time point, 30 min) ([1]; day 2.000): 56.66% | Percentage (normalized to maximal concentration at the first time point, 30 min) ([1]; day 3.000): 39.09% | Percentage (normalized to maximal concentration at the first time point, 30 min) ([1]; day 8.000): 22.21% | Percentage (normalized to maximal concentration at the first time point, 30 min) ([1]; day 10.000): 21.15% | Percentage (normalized to maximal concentration at the first time point, 30 min) ([1]; day 14.000): 21.41% | Percentage of Neutrophil [2]: 25.32 | F.I. (AlamarBlue fluorescence at 595 nm, cell viability) ([3]; 0.09808 ng/mL): 1412.387 | F.I. (AlamarBlue fluorescence at 595 nm, cell viability) ([3]; 0.29424 ng/mL): 1654.776 | F.I. (AlamarBlue fluorescence at 595 nm, cell viability) ([3]; 0.88272 ng/mL): 2082.718 | F.I. (AlamarBlue fluorescence at 595 nm, cell viability) ([3]; 2.64816 ng/mL): 2550.674 | F.I. (AlamarBlue fluorescence at 595 nm, cell viability) ([3]; 7.94449 ng/mL): 2997.807 | F.I. (AlamarBlue fluorescence at 595 nm, cell viability) ([3]; 23.83346 ng/mL): 3277.812 | F.I. (AlamarBlue fluorescence at 595 nm, cell viability) ([3]; 71.50039 ng/mL): 3308.383 | F.I. (AlamarBlue fluorescence at 595 nm, cell viability) ([3]; 214.50117 ng/mL): 3868.075 | Number of CD45RA− CD41− ([4]; 0.30483 ng/mL): 4070 | Number of CD45RA− CD41− ([4]; 0.91449 ng/mL): 3601 | Number of CD45RA− CD41− ([4]; 2.74348 ng/mL): 4303 | Number of CD45RA− CD41− ([4]; 8.23045 ng/mL): 6404 | Number of CD45RA− CD41− ([4]; 24.69136 ng/mL): 9122 | Number of CD45RA− CD41− ([4]; 74.07407 ng/mL): 11200 | Number of CD45RA− CD41− ([4]; 222.22222 ng/mL): 11000 | Number of CD45RA− CD41− ([4]; 666.66667 ng/mL): 11400 | Number of CD45RA− CD41− ([4]; 2000 ng/mL): 11400 | Number of CD45RA− CD41− ([4]; 6000 ng/mL): 13200
